According to PubChem BioAssay AID1745844 (Carcinogenic Potency Database (CPDB), 2022):
Several values for one entry are separate records, joined by “and”; a condition that tells them apart may be missing. Equal values may be shown once. Activity calls are given as the source filed them. The rule behind the calls is not given here.

Tested on: rodent lifetime carcinogenesis bioassay, tumor incidence TD50
Test: chronic cancer bioassays in animals – CPDB, compiled studies (AID 1745844)

CCN(Cc1cccc(S(=O)(=O)O)c1)c1ccc(C(=C2C=CC(=[N+](CC)Cc3cccc(S(=O)(=O)O)c3)C=C2)c2ccccc2S(=O)(=O)[O-])cc1
carcinogen call (mouse, strain Charles River CD1, females, in feed, site: liver, lesion: hemangioma, dosed 104 weeks, study length 104 weeks): negative (inactive)
TD50 (mouse, strain Charles River CD1, females, in feed, site: lung, lesion: adenocarcinoma, dosed 104 weeks, study length 104 weeks): 372000 mg/kg/day (inactive)
carcinogen call (mouse, strain Charles River CD1, females, in feed, site: lung, lesion: alveolar-cell adenoma, dosed 104 weeks, study length 104 weeks): negative (inactive)
TD50 (mouse, strain Charles River CD1, females, in feed, site: lung, lesion: alveolar-cell carcinoma, dosed 104 weeks, study length 104 weeks): 607000 mg/kg/day (inactive)
carcinogen call (mouse, strain Charles River CD1, females, in feed, site: lung, lesion: bronchiolar adenocarcinoma, dosed 104 weeks, study length 104 weeks): negative (inactive)
TD50 (mouse, strain Charles River CD1, females, in feed, site: lung, lesion: bronchiolar adenoma, dosed 104 weeks, study length 104 weeks): 856000 mg/kg/day (inactive)
carcinogen call (mouse, strain Charles River CD1, males, in feed, site: liver, lesion: hemangiosarcoma, dosed 104 weeks, study length 104 weeks): negative (inactive)
carcinogen call (mouse, strain Charles River CD1, males, in feed, site: liver, lesion: hepatocellular carcinoma, dosed 104 weeks, study length 104 weeks): negative (inactive)
TD50 (mouse, strain Charles River CD1, males, in feed, site: lung, lesion: adenocarcinoma, dosed 104 weeks, study length 104 weeks): 293000 mg/kg/day (inactive)
carcinogen call (mouse, strain Charles River CD1, males, in feed, site: lung, lesion: alveogenic adenocarcinoma, dosed 104 weeks, study length 104 weeks): negative (inactive)
carcinogen call (mouse, strain Charles River CD1, males, in feed, site: lung, lesion: alveolar-cell adenoma, dosed 104 weeks, study length 104 weeks): negative (inactive)
carcinogen call (mouse, strain Charles River CD1, males, in feed, site: lung, lesion: alveolar-cell carcinoma, dosed 104 weeks, study length 104 weeks): negative (inactive)
TD50 (mouse, strain Charles River CD1, males, in feed, site: lung, lesion: bronchiolar adenocarcinoma, dosed 104 weeks, study length 104 weeks): 343000 mg/kg/day (inactive)
TD50 (mouse, strain Charles River CD1, males, in feed, site: lung, lesion: bronchiolar adenoma, dosed 104 weeks, study length 104 weeks): 91100 mg/kg/day (inactive)
carcinogen call (rat, strain Osborne-Mendel, both sexes, in feed, site: any site (literature study), lesion: several types, types named in the paper, dosed 104 weeks, study length 104 weeks): negative (inactive)
TD50 (rat, strain Osborne-Mendel, both sexes, in feed, site: liver, lesion: hepatoma, dosed 104 weeks, study length 104 weeks): 62100 mg/kg/day

Cc1c(C)c2c(c(C)c1O)CCC(C)(CCCC(C)CCCC(C)CCCC(C)C)O2 (stereo not drawn)
carcinogen call (rat, strain F344/DuCrj, females, in feed, site: colon, lesion: one or several types, types not named, dosed 54 weeks, study length 54 weeks): negative (inactive)
carcinogen call (rat, strain F344/DuCrj, females, in feed, site: mammary gland, lesion: one or several types, types not named, dosed 54 weeks, study length 54 weeks): negative (inactive)
carcinogen call (rat, strain F344/DuCrj, males, in feed, site: esophagus, lesion: one or several types, types not named, dosed 52 weeks, study length 52 weeks): negative (inactive)
carcinogen call (rat, strain F344/DuCrj, males, in feed, site: forestomach, lesion: one or several types, types not named, dosed 52 weeks, study length 52 weeks): negative (inactive)
carcinogen call (rat, strain F344/DuCrj, males, in feed, site: liver, lesion: one or several types, types not named, dosed 52 weeks, study length 52 weeks): negative (inactive)

O=C[C@H](NC(=O)N(CCCl)N=O)[C@@H](O)[C@H](O)[C@H](O)CO
TD50 (rat, strain Sprague-Dawley, females, i.p., site: any site (literature study), lesion: malignant tumor, dosed 88 weeks, study length 114 weeks): 0.108 mg/kg/day
TD50 (rat, strain Sprague-Dawley, females, i.p., site: peritoneal cavity, lesion: several types, types named in the paper, dosed 88 weeks, study length 114 weeks): 0.0844 mg/kg/day
TD50 (rat, strain Sprague-Dawley, males, i.p., site: any site (literature study), lesion: malignant tumor, dosed 77 weeks, study length 100 weeks): 0.0521 mg/kg/day
TD50 (rat, strain Sprague-Dawley, males, i.p., site: peritoneal cavity, lesion: several types, types named in the paper, dosed 77 weeks, study length 100 weeks): 0.0241 mg/kg/day

Nc1ccc2c(c1)oc1ccccc12
TD50 (rat, strain Wistar, males, in feed, site: any site (literature study), lesion: benign tumor, dosed 89 weeks, study length 89 weeks): 1.57 mg/kg/day
TD50 (rat, strain Wistar, males, in feed, site: any site (literature study), lesion: malignant tumor, dosed 89 weeks, study length 89 weeks): 2.48 mg/kg/day
TD50 (rat, strain Wistar, males, in feed, site: liver, lesion: hepatoma, dosed 89 weeks, study length 89 weeks): 9.44 mg/kg/day

Nc1ccccc1N
TD50 (mouse, strain CD-1 HaM/ICR, females, in feed, site: any site (literature study), lesion: several types, types named in the paper, dosed 77 weeks, study length 90 weeks): 676 mg/kg/day
TD50 (mouse, strain CD-1 HaM/ICR, females, in feed, site: liver, lesion: hepatoma, dosed 77 weeks, study length 90 weeks): 611 mg/kg/day
TD50 (mouse, strain CD-1 HaM/ICR, females, in feed, site: liver, lesion: several types, types named in the paper, dosed 77 weeks, study length 90 weeks): 507 mg/kg/day
TD50 (mouse, strain CD-1 HaM/ICR, females, in feed, site: lung, lesion: several types, types named in the paper, dosed 77 weeks, study length 90 weeks): 2260 mg/kg/day (inactive)
TD50 (mouse, strain CD-1 HaM/ICR, males, in feed, site: any site (literature study), lesion: several types, types named in the paper, dosed 77 weeks, study length 86 weeks): 1970 mg/kg/day
TD50 (mouse, strain CD-1 HaM/ICR, males, in feed, site: liver, lesion: hepatoma, dosed 77 weeks, study length 86 weeks): 921 mg/kg/day and 1110 mg/kg/day
TD50 (mouse, strain CD-1 HaM/ICR, males, in feed, site: liver, lesion: several types, types named in the paper, dosed 77 weeks, study length 86 weeks): 921 mg/kg/day
TD50 (mouse, strain CD-1 HaM/ICR, males, in feed, site: lung, lesion: several types, types named in the paper, dosed 77 weeks, study length 86 weeks): 3210 mg/kg/day (inactive)
TD50 (rat, strain Charles River CD (Sprague-Dawley), males, in feed, site: liver, lesion: hepatoma, dosed 77 weeks, study length 107 weeks): 248 mg/kg/day and 315 mg/kg/day
TD50 (rat, strain Charles River CD (Sprague-Dawley), males, in feed, site: liver, lesion: several types, types named in the paper, dosed 77 weeks, study length 107 weeks): 248 mg/kg/day
